Results from PubChem BioAssay (NCI).
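96-well plates; 48 h exposure; 5 concentrations. Endpoints by linear interpolation between flanking doses. Not reached: highest tested concentration assigned. GI50 = concentration required for 50% inhibition of growth. TGI denotes the concentration required for complete inhibition of growth.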

Experiments:
Assay in all cases: NCI anticancer screen, dose series, 48 h
[1] = test system: OVCAR-3 ovarian
[2] = test system: OVCAR-4 ovarian
[3] = test system: SK-MEL-5 melanoma
[4] = test system: CCRF-CEM leukemia
[5] = test system: SK-MEL-2 melanoma
[6] = test system: A498 renal
[7] = test system: EKVX NSCLC
[8] = test system: SNB-19 CNS
[9] = test system: HCT-15 colon
[10] = test system: SF-268 CNS

Structure (SMILES)	TGI [1]	TGI [2]	TGI [3]	TGI [4]	TGI [5]	TGI [6]	TGI [7]	TGI [8]	TGI [9]	GI50 [10]	TGI [10]	GI50 [1]	GI50 [2]	GI50 [3]	GI50 [4]	GI50 [5]	GI50 [7]	GI50 [8]	GI50 [9]	GI50 [6]
COc1nc(NC2OC(COC(C)=O)C(OC(C)=O)C(OC(C)=O)C2OC(C)=O)c(N=C(C)C(C)=O)c(=O)n1C (stereo not drawn)	> 100 µM	> 100 µM	> 100 µM	> 100 µM	> 100 µM	> 100 µM	> 100 µM	> 100 µM	> 100 µM											
COc1nc2c(c(=O)n1C)CN(c1ccccc1)C(=O)CN2C	> 100 µM	> 100 µM	> 100 µM	> 100 µM	> 100 µM		> 100 µM	> 100 µM	> 100 µM	36.8 µM	> 100 µM	38.4 µM	71.2 µM	26.9 µM	> 100 µM	> 100 µM	19.9 µM	60.4 µM	56.7 µM	
OCC1CC2C=CCC(C2)C1 (stereo not drawn)	> 100 µM	> 100 µM	> 100 µM	> 100 µM	> 100 µM	> 100 µM	> 100 µM	> 100 µM			> 100 µM									
CCOC(=O)NC(=O)c1cn(C2CCCCC2)c(=O)n(C)c1=O	> 100 µM	> 100 µM	> 100 µM	> 100 µM	> 100 µM	> 100 µM		> 100 µM	> 100 µM		> 100 µM									
O=c1cccccc1O	> 100 µM	> 100 µM	> 100 µM	82.5 µM	> 100 µM		> 100 µM	> 100 µM	> 100 µM		> 100 µM									
CC[C@H](C)[C@H](NC(=O)c1ncccn1)C(=O)N(C)[C@H](C[C@@H](OC(C)=O)c1nc(C(=O)N[C@@H](Cc2ccccc2)C[C@H](C)C(=O)OC)cs1)C(C)C	> 25 µM	> 25 µM	4.77 µM	7.19 µM		17.6 µM	> 25 µM	> 25 µM	> 25 µM	2.21 µM	> 25 µM	0.796 µM	4.42 µM	0.848 µM	0.853 µM		4.62 µM	2.32 µM	1.39 µM	2.7 µM
CCCCSC1CCSc2c1ccc1ccccc21 (stereo not drawn)		> 100 µM	> 100 µM		> 100 µM			> 100 µM	> 100 µM											
N#Cc1c(N)c(C(=O)c2ccc3c(c2)OCCO3)n2c1CCCC2	> 28.3 µM	> 100 µM	> 100 µM	> 100 µM	> 100 µM	8.03 µM		> 100 µM	> 100 µM	7.46 µM	> 100 µM	2.88 µM	> 69.1 µM	3.32 µM	3.15 µM	4.06 µM		6.3 µM	1.04 µM	1.79 µM
CC(=O)NNc1ncc(C(=O)/C=C/c2ccccc2C)s1	> 100 µM		> 100 µM	> 100 µM	> 100 µM	> 100 µM	> 100 µM	> 100 µM			> 100 µM									
O=C(N/N=C/c1ccc([N+](=O)[O-])cc1)c1ccccc1Nc1ccnc(C(F)(F)F)c1	> 100 µM	56.3 µM	42.3 µM	> 100 µM		43.7 µM	59.5 µM	> 100 µM	> 100 µM	10.5 µM	82.8 µM	4.54 µM	14.2 µM	19.1 µM	> 100 µM		14.6 µM	23.9 µM	3.8 µM	10.5 µM
[Mn+3].[O-][Cl+3]([O-])([O-])O.[O-]c1ccccc1C=NCCN1CC1.[O-]c1ccccc1C=NCCN1CC1	40.1 µM	> 100 µM	80.8 µM		> 100 µM	> 100 µM	> 100 µM	> 100 µM	18.3 µM	15.9 µM	> 100 µM	19.6 µM	15.4 µM	17.6 µM		48.5 µM	41.3 µM	44.6 µM	4.15 µM	> 100 µM
Clc1ccc(-c2nnc(-c3nn(-c4ccccc4)c4nc5ccccc5nc34)o2)cc1	> 100 µM	> 100 µM	32.3 µM	80.8 µM	> 100 µM		> 100 µM	> 100 µM	> 100 µM		> 100 µM									
CON1C(=O)C2(CCCCC2)C(=O)C12C=CC(C)CC2 (stereo not drawn)	> 100 µM		> 100 µM	> 100 µM	> 100 µM	> 100 µM	> 100 µM	> 100 µM	> 100 µM		> 100 µM									
COc1cc(/C=C2\C[C@H]3[C@@H]4CC=C5C[C@@H](O)CC[C@]5(C)[C@H]4CC[C@]3(C)[C@H]2O)ccc1OCCN1CCCCC1	1.53 µM		1.19 µM	1.88 µM	> 50 µM	31.3 µM	9.62 µM	> 50 µM	1.03 µM	1.74 µM	12.5 µM	0.772 µM		0.576 µM	0.37 µM	5 µM	1.67 µM	2.17 µM	0.465 µM	14.3 µM
CN1CCN(c2ccncc2S(=O)(=O)N2CCN(C)CC2)CC1	> 100 µM	> 100 µM	> 100 µM		> 100 µM	> 100 µM	> 100 µM	> 100 µM	> 100 µM		> 100 µM									
CCOc1ccc(Nc2ccnc3cc(Cl)ccc23)cc1	> 100 µM	> 100 µM	> 100 µM	> 100 µM	> 100 µM	> 100 µM		> 100 µM	> 100 µM	57 µM	> 100 µM	> 100 µM	78.3 µM	> 100 µM	> 100 µM	> 100 µM		> 100 µM	4.38 µM	2.61 µM
Nc1ccc(C(=O)CC2(O)C(=O)Nc3ccccc32)cc1 (stereo not drawn)	> 100 µM	> 100 µM	> 100 µM		> 100 µM	> 100 µM	> 100 µM	> 100 µM	> 100 µM		> 100 µM									
Cn1nc(-c2ccccc2)c2c(/C=C/c3ccc(F)cc3)onc2c1=O			> 100 µM	> 100 µM			> 100 µM		> 100 µM		> 100 µM									
Cc1ccc([N+](=O)[O-])cc1NC(=O)C(=O)Cc1nc2ccc(C(=O)c3ccccc3)cc2[nH]c1=O	> 100 µM	> 100 µM	> 100 µM	> 100 µM			> 100 µM	> 100 µM	> 100 µM											
